From US20050049220A1, “Dosing regimen for Flaviviridae therapy” (priority 2003, published 2005)
Counter-ions that a name gives are not always drawn. Like-named read-outs stand apart in the source and are kept apart here.

Columns and labels:
HCV replicon = HCV replicon assay: HCV RNA by Q-RT-PCR, 4 days exposure; assay type: cell-based, hepatitis C virus (HCV); conditions: for log reduction at 10 µM: read-out: Corrected HCV RNA log10 reduction at 10 μM
Experimental: Antiviral screening assays can be done in the same media without G418 as follows: in order to keep cells in logarithmic growth phase, seed cells in a 96-well plate at low density, for example 1000 cells per well. Add the test compound immediate after seeding the cells and incubate for a period of 3 to 7 days at 37° C. in an incubator. Media is then removed, and the cells are prepared for total nucleic acid extraction (including replicon RNA and host RNA). Replicon RNA can then be amplified in a Q-RT-PCR protocol, and quantified accordingly. […] This value is called DeltaCt (ΔCt or DCt).
This value is called DeltaCt (ΔCt or dCt).

Huh-7 cells = test: Cellular rRNA levels / cytotoxicity in HCV replicon cells; conditions: for log10 RNA reduction at 100 μM, rRNA: 4 days, HCV replicon transfected Huh-7 cells
Description: In a typical setting, a compound might reduce both the host RNA polymerase activity and the replicon-encoded polymerase activity. Therefore, quantification of rRNA (or any other host RNA polymerase I product) or beta-actin mRNA (or any other host RNA polymerase II) and comparison with RNA levels of the no-drug control is a relative measurement of the effect of the test compound on host RNA polymerases.
With the availability of both the HCV ΔCt data and the rRNA ΔCt, a specificity parameter can be introduced. This parameter is obtained by subtracting both ΔCt values from each other.
IFN-α-2a and ribavirin were tested over a range of concentrations for their ability to reduce the HCV RNA levels in exponentially growing replicon cells after 4 days of exposure as described (Stuyver, L. et al. “A ribonucleoside analogue that blocks the replication of bovine viral diarrhea and hepatitis C viruses in culture” Antimicrob. Agents Chemother. 2003, 47, 244-254).
Gemcitabine was dissolved in DMSO and added to the culture media of a cellular model system of Huh7 cells harboring self-replicating HCV RNA, at final concentrations ranging from […]. In such experiments, one way to express the antiviral effectiveness of a compound is to subtract the threshold reverse-transcriptase polymerase chain reactions (RT-PCR) cycle of the test compound with the average threshold RT-PCR cycle of the negative control. This value is called DeltaCt (ΔCt or dCt). With the availability of both the HCV ΔCt data and the rRNA ΔCt, a specificity parameter can be introduced. This parameter is obtained by subtracting both ΔCt values from each other.

[1] = tested on: HCV replicon cells (Huh-7); test: 7-day cell growth dynamics, trypan-blue cell count; conditions: for effect on cell proliferation: 7-day period, at 96 h EC90 value (ribavirin 100 μM, IFN 100 IU/ml)
Experimental: FIG. 2 is a graphical depiction of the dynamics of cell growth and HCV RNA levels after exposure to control anti-HCV compounds. HCV replicon cells were seeded at approximately 10^4 cells per well in a 24-well plate. Over a 7-day period, cells were counted daily, and rRNA and HCV RNA were quantified by Q-RT-PCR. A: IFN-α-2a at 100 IU/ml; B: ribavirin at 100 μM. ●: cell proliferation in absence of compound; ◯: cell proliferation in presence of compound; ▾: HCV RNA levels in untreated cells; ∇: HCV RNA levels in the presence of compound. The curves shown are averages of 3 independent experiments.
Therefore, experiments were conducted to monitor HCV RNA levels and the cell growth dynamics over a 7-day period.
The dynamics of HCV replicon cells exposed to these inhibitors (at their EC90 value) was monitored over a 7-day period.

HCV replicon RNA [2] = test: 7-day dynamics of HCV RNA levels; assay type: cell-based, hepatitis C virus (HCV); conditions: 7-day period; at 96 h EC90 value (IFN 100 IU/ml)
HCV replicon RNA [3] = test: Replicon RNA copy number per cell; assay type: cell-based, hepatitis C virus (HCV); conditions: for change in replicon RNA copy number per cell (words): 7-day period, treated versus no-treatment controls
Experimental: FIG. 4 is a graphical depiction of the log10 changes for replicon RNA levels per cell. The plots were obtained from data collected in FIGS. 2 and 3, in which log10 changes for cell count and replicon RNA levels were subtracted from each other. A. Control antiviral compounds. ●: no drug control; ▾: IFN-α-2a at 100 IU/ml; ▪: ribavirin at 100 μM. B. Selection of the most important anti-metabolites. ●: no drug control; ▾: dFdC at 50 nM; ▪: CP-C at 25 μM; ♦: CPE-C at 2.5 μM; ▴: PALA at 10 μM; ●: PZF at 5 μM.
To express the specificity of the antiviral action of the control compounds versus the anti-metabolites, the log10 change in replicon RNA copy number per cell and per day was calculated from the above experiments.

HCV replicon cells = test: Prevention studies with natural ribo- or 2′-deoxy nucleosides; assay type: cell-based, human; conditions: test compound at 96 h EC90 value; nucleosides at 50 μM
HCV = test: Single treatment of an HCV-infected patient, viral load; assay type: in vivo, human; conditions: for tolerance / adverse events: patient with multifocal HCC, cirrhosis, ischaemic hepatitis
Experimental: The tolerance was acceptable, and thus the next day the patient was given a second dosage of approximately 700 mg of gemcitabine. Before the second dosage the baseline viral load was 6.49 log copies/mL.

[4] = Hepatitis C virus, 96 h, read-out: Corrected HCV RNA log10 reduction at 100 μM
[5] = Hepatitis C virus, 96 h, 100 μM, 4 days, HCV replicon transfected Huh-7 cells, read-out: log10 RNA reduction at 100 μM, HCV
[6] = Hepatitis C virus, 96 h incubation, read-out: Corrected HCV RNA EC90
[7] = Hepatitis C virus, 96 h, read-out: Corrected HCV RNA EC90
[8] = 100 μM, 4 days, HCV replicon transfected Huh-7 cells
[9] = 96 h incubation, read-out: Corrected HCV RNA EC90
[10] = second dosage approximately 700 mg

NC(=O)c1ncn([C@@H]2O[C@H](CO)[C@@H](O)[C@H]2O)c1O [Mizoribine]
log reduction at 10 µM (HCV replicon; Hepatitis C virus, 96 h): -0.14 ± 0.12 | log reduction at 100 µM (HCV replicon; [4]): 0.08 ± 0.82 | log reduction at 100 µM (HCV replicon; [5]): 0.29 ± 0.74 | EC90 (HCV replicon; [6]): > 100 µM | log10 RNA reduction at 100 μM, rRNA (Huh-7 cells): 0.21 ± 0.50 log10

COc1c(C)c2c(c(O)c1C/C=C(\C)CCC(=O)O)C(=O)OC2 [Mycophenolic acid]
log reduction at 10 µM (HCV replicon; Hepatitis C virus, 96 h): 0.22 ± 0.01 | log reduction at 100 µM (HCV replicon; [4]): 0.07 ± 0.47 | log reduction at 100 µM (HCV replicon; [5]): 1.15 ± 0.43 | EC90 (HCV replicon; [6]): > 100 µM | log10 RNA reduction at 100 μM, rRNA (Huh-7 cells): 1.09 ± 0.28 log10

O=C(O)C[C@H](NC(=O)CP(=O)(O)O)C(=O)O [PALA, N-(Phosphonoacetyl)-L-aspartate]
EC90 (HCV replicon; [7]): 7.6 µM | log reduction at 10 µM (HCV replicon; Hepatitis C virus, 96 h): 1.18 ± 0.11 | log reduction at 100 µM (HCV replicon; [4]): 1.3 ± 0.05 | log reduction at 100 µM (HCV replicon; [5]): 1.77 ± 0.02 | log10 RNA reduction at 100 μM, rRNA (Huh-7 cells): 0.48 ± 0.02 log10

NC(=O)c1[nH]nc([C@@H]2O[C@H](CO)[C@@H](O)[C@H]2O)c1O [PZF, pyrazofurin]
EC90 (HCV replicon; [7]): 3.8 µM | log reduction at 10 µM (HCV replicon; Hepatitis C virus, 96 h): 1.16 ± 0.21 | log reduction at 100 µM (HCV replicon; [4]): 1.46 ± 0.08 | log reduction at 100 µM (HCV replicon; [5]): 1.88 ± 0.05 | log10 RNA reduction at 100 μM, rRNA (Huh-7 cells): 0.42 ± 0.03 log10 | effect on cell proliferation [1]: reduced cell proliferation only minimally | effect on HCV RNA levels (HCV replicon RNA [2]): significantly reduced HCV RNA levels | reduction in replicon RNA levels per cell (HCV replicon RNA [3]; 5 μM, after 7 days treatment): 2.96 log10 | change in replicon RNA copy number per cell (words) (HCV replicon RNA [3]): time dependent reduction | prevention of antiviral and cytostatic effects by natural nucleosides (HCV replicon cells): prevented by addition of uridine

Nc1ccn(C2OC(CO)C(O)C2=CF)c(=O)n1 (stereo not drawn) [Tezacytabine]
Corrected HCV RNA log10 reduction at 10 μM (HCV replicon; corrected for rRNA): 0.63 ± 0.07 log10 | log10 RNA reduction at 100 μM, HCV (HCV replicon; [8]): 1.59 ± 0.08 log10 | Corrected HCV RNA log10 reduction at 100 μM (HCV replicon; 100 μM, corrected for rRNA): −0.19 ± 0.49 log10 | EC90 (HCV replicon; [9]): > 100 µM | log10 RNA reduction at 100 μM, rRNA (Huh-7 cells): 1.78 ± 0.69 log10

NC(=O)c1csc([C@@H]2O[C@H](CO)[C@@H](O)[C@H]2O)n1 [Tiazofurin]
EC90 (HCV replicon; [7]): > 100 µM | log reduction at 10 µM (HCV replicon; Hepatitis C virus, 96 h): 0.04 ± 0.1 | log reduction at 100 µM (HCV replicon; [4]): -0.13 ± 0.37 | log reduction at 100 µM (HCV replicon; Hepatitis C virus, Huh-7, 96 h, read-out: log10 RNA reduction at 100 μM, HCV): 0.86 ± 0.27 | log10 RNA reduction at 100 μM, rRNA (Huh-7 cells): 0.99 ± 0.35 log10

Nc1ccn([C@@H]2O[C@H](CO)[C@@H](O)C2(F)F)c(=O)n1 [dFdC, 2′-deoxy-2′,2′-difluorocytidine]
Corrected HCV RNA EC90 (HCV replicon; 96 h incubation): Too toxic | antiviral activity on HCV replicon RNA (HCV replicon; HCV replicon cells): most potent inhibitor of both replicon RNA and cells | log reduction at 10 µM (HCV replicon; Hepatitis C virus, 96 h): 1.32 ± 0.08 | EC90 (HCV replicon; Hepatitis C virus, Huh-7, 96 h, 4-days incubation, Huh7 cells harboring self-replicating HCV RNA, read-out: EC90, reduction of replicon HCV RNA): ~0.07 µM | EC50 (HCV replicon; Hepatitis C virus, Huh-7, Huh7 cells harboring self-replicating HCV RNA, read-out: EC50, reduction of HCV RNA levels): 0.04 µM | log10 RNA reduction, HCV (HCV replicon; dFdC tested initially at 50 μM): 1.87 ± 0.16 log10 | Corrected HCV RNA log10 reduction (HCV replicon; dFdC tested initially at 50 μM, corrected for rRNA): 1.29 ± 0.11 log10 | IC50 (Huh-7 cells; Homo sapiens, Huh-7): 0.24 µM | log10 RNA reduction, rRNA (Huh-7 cells; dFdC tested initially at 50 μM): 0.59 ± 0.05 log10 | non-cytotoxic concentration ([1]; range of testing 50-1,000 nM, 7-day dynamics): could not be found | prevention of antiviral and cytostatic effects by natural nucleosides (HCV replicon cells): prevented by 2′-deoxycytidine | tolerance / adverse events (HCV; listed as gemcitabine): heart problems | baseline viral load before the second dosage (HCV; patient, day after 1200 mg gemcitabine HCl with oxaliplatine): 6.49 log copies/mL | HCV RNA eight hours after the second dosage (HCV; [10]): 4.04 log copies/mL | drop in HCV RNA in eight hours (HCV; [10]): ~2.5 log

O=c1ccn(C2OC(CO)C(O)C2(F)F)c(=O)[nH]1 (stereo not drawn) [dFdU]
dCT HCV (HCV replicon; 7.0 μM): 6.39 | ddCt (HCV replicon; 7.0 μM, HCV dCt minus rRNA dCt): 4.42 | dCt rRNA (Huh-7 cells; 7.0 μM): 1.96

Nc1ccn([C@@H]2O[C@H](CO)[C@@H](O)C2(F)F)c(=O)n1 [gemcitabine HCl]
tolerance / adverse events (HCV; HCl): acceptable

Cyclopentylcytosine [CP-C]
Corrected HCV RNA log10 reduction at 10 μM (HCV replicon; corrected for rRNA): 0.64 ± 0.10 log10 | log10 RNA reduction at 100 μM, HCV (HCV replicon; [8]): 1.97 ± 0.38 log10 | Corrected HCV RNA log10 reduction at 100 μM (HCV replicon; 100 μM, corrected for rRNA): 1.06 ± 0.26 log10 | EC90 (HCV replicon; [9]): 25 µM | log10 RNA reduction at 100 μM, rRNA (Huh-7 cells): 0.91 ± 0.13 log10 | effect on cell proliferation [1]: cytostatic effects | effect on HCV RNA levels (HCV replicon RNA [2]): reduced HCV-replicon RNA levels | change in replicon RNA copy number per cell (words) (HCV replicon RNA [3]): profile similar to that seen for IFN-α-2a | prevention of antiviral and cytostatic effects by natural nucleosides (HCV replicon cells): addition of cytidine to the culture medium compensated for the inhibitory effects
